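Cells were grown in 96-well plates and exposed to each compound for 48 hours at five concentrations; endpoints were interpolated linearly between bracketing concentrations, or set to the highest concentration if not reached. TGI: concentration producing complete growth inhibition.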
Assays:
Experiment in all cases: NCI-60 cell line screen, 48 h
MCF7 breast = system: MCF7 breast
NCI/ADR-RES ovarian = system: NCI/ADR-RES ovarian
OVCAR-8 ovarian = system: OVCAR-8 ovarian
TK-10 renal = system: TK-10 renal
PC-3 prostate = system: PC-3 prostate
SNB-19 CNS = system: SNB-19 CNS
HS 578T breast = system: HS 578T breast
SW-620 colon = system: SW-620 colon
OVCAR-4 ovarian = system: OVCAR-4 ovarian
MDA-N = system: MDA-N
SK-MEL-2 melanoma = system: SK-MEL-2 melanoma
IGROV1 ovarian = system: IGROV1 ovarian
DU-145 prostate = system: DU-145 prostate
T-47D breast = system: T-47D breast
UACC-62 melanoma = system: UACC-62 melanoma
M14 melanoma = system: M14 melanoma
NCI-H460 lung = system: NCI-H460 lung
HL-60(TB) leukemia = system: HL-60(TB) leukemia
SNB-75 CNS = system: SNB-75 CNS

| Structure (SMILES) | TGI (MCF7 breast) | TGI (NCI/ADR-RES ovarian) | TGI (OVCAR-8 ovarian) | TGI (TK-10 renal) | TGI (PC-3 prostate) | TGI (SNB-19 CNS) | TGI (HS 578T breast) | TGI (SW-620 colon) | TGI (OVCAR-4 ovarian) | TGI (MDA-N) | TGI (SK-MEL-2 melanoma) | TGI (IGROV1 ovarian) | TGI (DU-145 prostate) | TGI (T-47D breast) | TGI (UACC-62 melanoma) | TGI (M14 melanoma) | TGI (NCI-H460 lung) | TGI (HL-60(TB) leukemia) | TGI (SNB-75 CNS) |
| --- | --- | --- | --- | --- | --- | --- | --- | --- | --- | --- | --- | --- | --- | --- | --- | --- | --- | --- | --- |
| COC(=O)[C@@]1(Cc2ccc(O)cc2)C[C@@H]2Cc3ccccc3N2N1 | > 100 µM | > 100 µM | > 100 µM | > 100 µM | > 100 µM | > 100 µM | > 100 µM | > 100 µM | > 100 µM | > 100 µM | 92.8 µM | > 100 µM | > 100 µM | > 100 µM | > 100 µM | > 100 µM |  |  |  |
| CCOC(=O)C1=c2[nH]c3cccc4cccc(c43)n2C(=O)CC1c1ccccc1 (stereo unspecified) | > 100 µM | > 100 µM | > 100 µM | > 100 µM | > 100 µM | > 100 µM | > 100 µM | > 100 µM | > 100 µM | > 100 µM | > 100 µM | > 100 µM | > 100 µM | > 100 µM | > 100 µM | > 100 µM | > 100 µM | > 100 µM | > 100 µM |
| O=C(OC[C@H]1C[C@H]2C(=O)CCC[C@H]2O1)c1ccccc1 | > 100 µM | > 100 µM | > 100 µM | > 100 µM | > 100 µM | > 100 µM | > 100 µM | > 100 µM | > 100 µM | > 100 µM | > 100 µM | > 100 µM | > 100 µM | > 100 µM | > 100 µM | > 100 µM | > 100 µM | > 100 µM | > 100 µM |
| O=C1CCCC(=O)N1n1c(Cc2ccccc2)n[nH]c1=O | > 100 µM | > 100 µM | > 100 µM | > 100 µM | > 100 µM |  | > 100 µM | > 100 µM | > 100 µM | > 100 µM | > 100 µM | > 100 µM | > 100 µM | > 100 µM | > 100 µM | > 100 µM |  | > 100 µM | > 100 µM |
| CCOC(=O)NC(C(=O)OCC)(N1CCN(c2cc3c(cc2F)c(=O)c(C(=O)O)cn3CC)CC1)C(F)(F)F (stereo unspecified) | > 100 µM | > 100 µM | 34 µM | > 100 µM | > 100 µM | > 100 µM | > 100 µM | > 100 µM | > 100 µM | > 100 µM | > 100 µM | > 100 µM | > 100 µM | > 100 µM | > 100 µM | > 100 µM | > 100 µM | > 100 µM | > 100 µM |
| CCOC(=O)/C(N=Nc1ccc(-n2c(C)nc3ccc(Br)cc3c2=O)cc1)=C(/C)O | > 100 µM | > 100 µM | > 100 µM | > 100 µM | > 100 µM | > 100 µM | 70.7 µM | > 100 µM |  | > 100 µM | > 100 µM | > 100 µM | > 100 µM | > 100 µM | > 100 µM | > 100 µM | > 100 µM | > 100 µM | 86.7 µM |
| COC1=CC(=O)c2c(cc(COP(=O)(OCC3OC(n4cc(F)c(=O)[nH]c4=O)CC3O)N(C)CCCCCl)n2C)C1=O (stereo unspecified) | 1.84 µM | > 40.6 µM | > 73.3 µM | > 100 µM | 22.7 µM | > 70.5 µM | 2.64 µM | > 59.9 µM | > 34.8 µM | 8.86 µM | 56.6 µM | 23.7 µM | 33.3 µM | 36.2 µM | 1.79 µM | 12.8 µM | 14 µM | 16 µM |  |
| C[n+]1c2ccccc2n2c3ccccc3c(NCCc3ccccn3)c(C#N)c21 | 2.97 µM | > 60 µM |  | 7.88 µM | 23.9 µM | > 26.8 µM | 12.1 µM | 3.24 µM | 5.93 µM | 4.87 µM | 7.73 µM |  | 7.01 µM | 13.7 µM |  | 6.56 µM | 3.61 µM | 7.9 µM | 5.22 µM |
| Cc1ccc(S(=O)(=O)N2c3ccccc3[C@H]3CCC=C[C@H]32)cc1 | > 100 µM |  | > 88.5 µM | > 100 µM | > 100 µM | > 100 µM | 86.3 µM | 47.7 µM | > 100 µM | > 100 µM | 39.2 µM | > 100 µM | > 100 µM | > 100 µM | 42.3 µM | 43.3 µM | > 64.7 µM | 28.8 µM | 42.5 µM |
| COc1cc(OC)c2c(=O)c(OC)c(-c3ccc4c(c3)OCO4)oc2c1OC | > 100 µM | > 100 µM | > 100 µM | > 100 µM | > 100 µM | > 100 µM | > 100 µM | > 100 µM |  | > 100 µM | > 100 µM | > 100 µM | > 100 µM | > 100 µM | > 100 µM | > 100 µM | > 100 µM | 40.4 µM | > 100 µM |
| CCOC(=O)C1C(c2ccc(O)c(OC)c2)c2c([nH][nH]c2=O)CC1(C)O (stereo unspecified) | > 100 µM | > 100 µM | > 100 µM | > 100 µM | > 100 µM | > 100 µM | > 100 µM | > 100 µM | > 100 µM | > 100 µM | > 100 µM | > 100 µM | > 100 µM | > 100 µM | > 100 µM | > 100 µM |  | > 100 µM | > 100 µM |
| CC(=O)OC12c3ccccc3-c3ccccc3C1C(C(=O)O)C2(Cl)C(=O)O (stereo unspecified) | > 10 µM | > 10 µM | > 10 µM | > 10 µM | > 10 µM | > 10 µM | > 10 µM | > 10 µM | > 10 µM | > 10 µM | > 10 µM | > 10 µM | > 10 µM | > 10 µM |  | > 10 µM | > 10 µM | > 10 µM | > 10 µM |
| COC(CC1(/C=C/O[Si](C(C)C)(C(C)C)C(C)C)C(=O)N(COCC[Si](C)(C)C)c2ccccc21)OC (stereo unspecified) |  | > 100 µM | > 100 µM | > 100 µM | 85.2 µM | > 100 µM | > 100 µM | > 100 µM | > 100 µM | > 100 µM | 26.8 µM | 59.9 µM | > 100 µM | > 100 µM | 69.4 µM | > 100 µM | > 100 µM |  | > 100 µM |
